Results as given in PMC9176662, “Design, synthesis, molecular modeling and biological evaluation of novel Benzoxazole-Benzamide conjugates via a 2-Thioacetamido linker as potential anti-proliferative agents, VEGFR-2 inhibitors and apoptotic inducers” (Journal of Enzyme Inhibition and Medicinal Chemistry, 2022).
“And” between values parts separate entries of the source, which are not always exact repeats. Identical values can stand only once.

Columns and labels:
VEGFR-2 Protein Kinase = target: T1, VEGFR-2 Protein Kinase (Homo sapiens, UniProt P35968); experiment: VEGFR-2 inhibitory activity (HTScan VEGF Receptor-2 Kinase Assay Kit, ELISA); type: biochemical; conditions: mean of three individual experiments
T1 construct: It includes active VEGFR-2 kinase; purchased HTScan VEGF Receptor-2 Kinase Assay Kit
Procedure: 2.2. VEGFR-2 Inhibitory activity
VEGFR-2 ELISA (Enzyme-Linked Immunosorbent Assay) kits (HTScan® VEGF Receptor-2 […]
phospho-tyrosine antibody) for detection of the phosphorylated form of the substrate peptide).
On a 96-well plate, a particular VEGFR-2 antibody was seeded and 100 μL of the normal solution or the tested compound tested was applied, incubated at room temperature for 2.5 h and washed. Then, 100 μL of the prepared biotin antibody was added, incubated for an additional 1 h at room temperature and washed. Following, 100 μL of streptavidin solution was added at room temperature, incubated for 45 minutes and then, 100 μL of TMB Substrate solution was applied and incubated at room temperature for 30 minutes. Finally, 50 μL stop solution was added and the absorption was measured at 450 nm instantly. The standard curve, the X -axis concentrations, and the Y-axis absorbance were drawn. […]

WI-38 cells = experiment: Cytotoxicity against normal fibroblasts, SRB assay, WI-38; type: cell-based; conditions: normal human fibroblasts, 72 h, mean ± SD of three separate experiments
Description: Several of these derivatives were reported as acting as competitive inhibitors of different tyrosine kinases, with potent cytotoxic activity against various cell lines[58]^,[59]. […] Thus, in this study a novel series of benzoxazole-benzamide conjugates was initially evaluated for their potential anti-cancer activity against colon cancer cell line (HCT-116), breast cancer cell line (MCF-7) and normal human fibroblasts (WI-38), using the Sulforhodamine B colorimetric (SRB) assay.
2.1. Anti-proliferative activity against HCT-116 and MCF-7 human cancer cells lines.
The sulforhodamine B (SRB) assays were performed according to Skehan et al..
Briefly, exponentially growing cells were trypsinized, counted and seeded at the appropriate densities (5000 cells/100 μL/ well) into 96-well microtiter plates. Cells were incubated in a humidified atmosphere at 37 °C for 24 h. Then, the cells were exposed to the tested compounds at the desired concentrations (0.01, 0.1, 1, 10, and 100 μM) or to 1% dimethyl sulfoxide (DMSO) for 72 h. At the end of the treatment period, the media were removed, and the cells were fixed with 10% trichloroacetic acid at 4 °C for 1 h. Following, the cells were washed with tap water four times and incubated with SRB 0.4% for 30 min. Excess dye was removed by washing repeatedly with 1% (vol/vol) acetic acid. The protein-bound dye was dissolved in 10 mM Tris base solution for (optical density) OD determination at 510 nm using a Spectra Max plus Microplate Reader (Molecular Devices, CA). Cell viability was expressed relative to the untreated control cells. […]

MCF-7 cells = experiment: Cell cycle analysis by DNA flow cytometry, MCF-7; type: cell-based, human; conditions: MCF7, 24 h, compound at its IC50 (supplement: 10 μM); for %Pre-G1: control 3.41; for %G2-M: control 16.53; for %S: control 28.33; for %G0-G1: control 55.14
Procedure: It is clearly known that generally the cytotoxic agents exert their anti-proliferative effect via cell cycle arrest at a specific phase. In the present study, due to the excellent in-vitro anti-proliferative activity of conjugates 1 and 11 against both HCT-116 and MCF-7 cancer cell lines as well as their excellent VEGFR-2 inhibitory activities, cell cycle analysis have been carried out for both compounds. […]
2.3. Cell cycle analysis.
HCT-116 and MCF-7 cells were seeded at concentrations of 1 x 10^5 cells per well in a 6-well plate, and then incubated for 24 h. The cells were treated for 24 h with vehicles (0.1 percent DMSO) or 10 μM of compounds 1 or 11. Using ice-cold, 70 percent ethanol at 4 °C, cells were harvested and fixed for 12 h. Ethanol was removed, and the cells were washed by cold PBS.
Then, the cells were incubated in 0.5 mL of PBS containing 1 mg/mL Ranse for 30 min at 37 °C.
In the dark, the cells were stained with propidium iodide for 30 min. Flow cytometer was then used to detect contents of DNA [63]. […]

T1 sequence (P35968 20-1356): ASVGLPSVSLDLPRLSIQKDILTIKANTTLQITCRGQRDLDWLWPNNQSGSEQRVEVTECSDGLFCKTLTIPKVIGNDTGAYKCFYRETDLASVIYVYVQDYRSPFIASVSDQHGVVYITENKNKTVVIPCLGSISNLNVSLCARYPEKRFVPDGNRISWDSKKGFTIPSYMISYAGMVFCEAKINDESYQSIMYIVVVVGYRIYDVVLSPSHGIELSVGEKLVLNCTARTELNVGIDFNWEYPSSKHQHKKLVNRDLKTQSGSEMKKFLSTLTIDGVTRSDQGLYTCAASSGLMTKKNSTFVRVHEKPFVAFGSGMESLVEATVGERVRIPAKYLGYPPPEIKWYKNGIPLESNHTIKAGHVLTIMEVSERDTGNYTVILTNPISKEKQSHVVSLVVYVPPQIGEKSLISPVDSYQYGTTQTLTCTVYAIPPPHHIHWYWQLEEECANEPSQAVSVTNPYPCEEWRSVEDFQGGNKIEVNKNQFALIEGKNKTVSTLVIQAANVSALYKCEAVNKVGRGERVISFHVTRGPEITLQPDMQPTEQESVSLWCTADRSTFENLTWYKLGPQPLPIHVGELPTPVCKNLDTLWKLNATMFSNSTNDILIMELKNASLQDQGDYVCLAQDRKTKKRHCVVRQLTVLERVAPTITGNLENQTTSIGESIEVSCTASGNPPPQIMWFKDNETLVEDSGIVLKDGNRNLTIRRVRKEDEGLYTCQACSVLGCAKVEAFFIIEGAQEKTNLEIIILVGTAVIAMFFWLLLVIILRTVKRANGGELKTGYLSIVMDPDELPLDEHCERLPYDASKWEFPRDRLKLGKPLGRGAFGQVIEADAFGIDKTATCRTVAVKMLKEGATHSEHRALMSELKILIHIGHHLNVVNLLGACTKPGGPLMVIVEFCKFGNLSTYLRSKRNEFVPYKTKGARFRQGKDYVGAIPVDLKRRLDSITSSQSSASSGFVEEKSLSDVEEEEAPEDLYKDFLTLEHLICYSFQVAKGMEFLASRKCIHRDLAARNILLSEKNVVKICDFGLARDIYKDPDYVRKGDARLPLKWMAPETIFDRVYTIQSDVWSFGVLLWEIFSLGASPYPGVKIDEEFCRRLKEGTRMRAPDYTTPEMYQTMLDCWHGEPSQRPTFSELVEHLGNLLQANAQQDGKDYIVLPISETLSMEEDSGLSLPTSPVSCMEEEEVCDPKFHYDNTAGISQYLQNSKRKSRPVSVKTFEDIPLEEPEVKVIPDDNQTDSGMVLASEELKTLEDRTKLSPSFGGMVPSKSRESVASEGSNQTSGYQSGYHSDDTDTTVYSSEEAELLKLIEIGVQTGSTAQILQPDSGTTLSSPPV

| SMILES | IC50 (VEGFR-2 Protein Kinase) | IC50 (WI-38 cells) [nM] | %Pre-G1 (MCF-7 cells) [%] | %G2-M (MCF-7 cells) [%] | %S (MCF-7 cells) [%] | %G0-G1 (MCF-7 cells) [%] |
| --- | --- | --- | --- | --- | --- | --- |
| O=C(CSc1nc2cc(Cl)ccc2o1)Nc1ccc(C(=O)Nc2ccc(Cl)cc2)cc1 [Compound 11] | 360 nM and 361 nM | 103500 ± 700 | 16.93 | 25.24 | 30.92 | 43.84 |
| O=C(CSc1nc2ccccc2o1)Nc1ccc(C(=O)NC2CCCCC2)cc1 [Compound 1] | 270 nM and 268 nM | 41900 ± 270 | 19.78 | 29.62 | 29.72 | 40.66 |
